{"source": "patent US11154071B2", "about": "“Sweetener iso-mogroside V” (Glvaudan SA, priority 2007, dated 2021)", "assay_type_in_all_cases": "in vivo", "key": {"[1]": {"test_system": "sweet sensitive panelists", "test": "Comparison of the sweetness of mogroside V and iso-mogroside V in water, blind samples, sensory panel", "details": "panel of 4", "method": "The intensity of sweet taste of iso-mogroside V when compared to mogroside V was determined in water using near-sweetness detection threshold concentrations. The direct comparison was carried out by a panel of 4 sweet sensitive panelists. Blind samples (identity unidentifiable by panelists) were randomly presented to panelists in 15 ml aliquots at ambient temperature. Sensory evaluation started with the lower sample concentration (10 ppm)."}, "[2]": {"test_system": "sweet sensitive panelists", "test": "Determination of the sweetness threshold of iso-mogroside V: isointensity to sucrose solutions, paired comparison", "method": "[…] Samples were paired and tasted left to right with rinsing of the mouth (water) in-between. 20 ppm iso-mogroside V was evaluated as described but with 4 sweet sensitive panelists and 0.5, 1.0 and 1.5% sucrose."}, "[3]": {"test": "Preliminary experiments on flavour enhancing effect on sweeteners"}, "[4]": {"test_system": "sweet sensitive panelists", "test": "Sweetness enhancement of iso-mogroside V at near threshold concentration in 7% sucrose solution, sensory panel", "details": "10 ppm iso-mogroside V in 7% sucrose solution", "method": "The sweetness enhancement properties of iso-mogroside V was determined using a sample having a concentration of 10 ppm iso-mogroside V, which is near the sweetness detection threshold, in 7% sucrose solution.\nThe iso-mogroside V sample was directly compared to samples of 7%, 8% or 9% sucrose, and panelists were instructed to compare the sweetness intensity of the samples.\nThe comparisons were carried out by a panel of 6 sweet sensitive panelists. All samples were presented to panelists in 15 ml aliquots at ambient temperature. Panelists compared the iso-mogroside V sample to each of the sucrose samples."}}}
{"smiles": "C[C@H](CC[C@@H](O[C@@H]1O[C@H](CO[C@@H]2O[C@H](CO)[C@@H](O)[C@H](O)[C@H]2O)[C@@H](O)[C@H](O)[C@H]1O[C@@H]1O[C@H](CO)[C@@H](O)[C@H](O)[C@H]1O)C(C)(C)O)[C@H]1CC[C@@]2(C)[C@@H]3CC=C4[C@@H](CC[C@H](O[C@@H]5O[C@H](CO)[C@@H](O[C@@H]6O[C@H](CO)[C@@H](O)[C@H](O)[C@H]6O)[C@H](O)[C@H]5O)C4(C)C)[C@]3(C)[C@H](O)C[C@]12C", "note": "[iso-mogroside V, 3-[(4-O-β-D-glucopyranosyl-β-D-glucopyranosyl)oxy]-mogrol-24-O-β-D-glucopyranosyl-(1→2)-O-[β-D-glucopyranosyl-(1→6)]-β-D-glucopyranoside]", "values": [{"measurement": "Taste of iso-mogroside V samples compared to mogroside V", "setting": "[1]; 10 ppm in water", "result": "sweeter"}, {"measurement": "panelists who indicated iso-mogroside V is sweeter than mogroside V", "setting": "[1]; 10 ppm in water", "result": "two"}, {"measurement": "Taste of iso-mogroside V samples compared to mogroside V", "setting": "[1]; 20 ppm in water", "result": "sweeter"}, {"measurement": "panelists who indicated iso-mogroside V is sweeter than mogroside V", "setting": "[1]; 20 ppm in water", "result": 4, "unit": "panelists"}, {"measurement": "Taste of iso-mogroside V samples compared to sucrose", "setting": "[2]; 10 ppm in water vs 0% sucrose (water), 5 panelists", "result": "sweeter"}, {"measurement": "Taste of iso-mogroside V samples compared to sucrose", "setting": "[2]; 10 ppm in water vs 0.5% sucrose, 5 panelists", "result": "isosweet"}, {"measurement": "Taste of iso-mogroside V samples compared to sucrose", "setting": "[2]; 10 ppm in water vs 1.0% sucrose, 5 panelists", "result": "less sweet"}, {"measurement": "Taste of iso-mogroside V samples compared to sucrose", "setting": "[2]; 20 ppm in water vs 0.5% sucrose, 4 panelists", "result": "sweeter"}, {"measurement": "Taste of iso-mogroside V samples compared to sucrose", "setting": "[2]; 20 ppm in water vs 1% sucrose, 4 panelists", "result": "isosweet"}, {"measurement": "Taste of iso-mogroside V samples compared to sucrose", "setting": "[2]; 20 ppm in water vs 1.5% sucrose, 4 panelists", "result": "less sweet"}, {"measurement": "equivalent sweetness intensity at the sweetness detection threshold", "setting": "[2]; about 0.2 ppm in water as stated", "result": "about 0.5 % sucrose"}, {"measurement": "sweetness relative to sucrose", "setting": "[2]; from 10 ppm isosweet to 0.5% sucrose", "result": "about 500 times"}, {"measurement": "flavour enhancing effect on sweeteners compared to its known isomer (mogroside V)", "setting": "[3]", "result": "particularly high flavour enhancing effect"}, {"measurement": "panelists who found the sample as sweet or sweeter as 8% sucrose", "setting": "[4]", "result": "5 of 6"}, {"measurement": "panelists who found the sample sweeter than 7% but less sweet than 8% sucrose", "setting": "[4]", "result": "1 of 6"}, {"measurement": "sweetness enhancement effect (equal to sucrose)", "setting": "[4]; after subtracting own sweetness of 0.5% sucrose", "result": "≥ 0.5", "unit": "% sucrose"}, {"measurement": "sweetness of iso-mogroside V sample (equal to sucrose)", "setting": "[4]; compared to 7%, 8% or 9% sucrose, panel of 6", "result": "≥ 8", "unit": "% sucrose"}]}
